Data as given in ChEMBL document CHEMBL1131873, “Induction of erythroid differentiation of human K562 cells by 3-O-acyl-1,2-O-isopropylidene-D-glucofuranose derivatives” (Bioorg Med Chem Lett, 1999).
One block for each molecule: values may come before it.

Legend:
[1] = tested on: K562; assay: Maximum level of percentage of benzidine-positive (hemoglobin-containing) K562 cells reached with in 9 days at 4 mM concentration; assay type: functional, Homo sapiens
[2] = tested on: K562; assay: Maximum level of percentage of benzidine-positive (hemoglobin-containing) K562 cells reached with in 9 days at 3 mM concentration; assay type: functional, Homo sapiens
[3] = tested on: K562; assay: In vitro inhibition of cell growth against human myeloid leukemia K562(S) cells; assay type: functional, cell-based
[4] = tested on: K562; assay: Inhibition of cell growth against human myeloid leukemia K562(S) cells; assay type: functional, cell-based
[5] = tested on: K562; assay: Evaluated for erythroid induction of benzidine-positive K562 cells at concentration 2 mM after 9 day induction period; assay type: functional, Homo sapiens
[6] = tested on: K562; assay: Compound was evaluated for erythroid induction of benzidine-positive K562 cells at concentration 1 mM after 9 day induction period; assay type: functional, Homo sapiens
[7] = tested on: K562; assay: Compound was evaluated for erythroid induction of benzidine-positive K562 cells at concentration 4 mM after 9 day induction period; assay type: functional, Homo sapiens
[8] = tested on: K562; assay: Compound was evaluated for erythroid induction of benzidine-positive K562 cells at concentration 3 mM after 9 day induction period; assay type: functional, Homo sapiens
[9] = tested on: K562; assay: Effect of compound on erythroid differentiation of K562 cells was determined after a period of 7 days at concentration 4 mM; assay type: functional, Homo sapiens
[10] = tested on: K562; assay: Effect of compound on erythroid differentiation of K562 cells was determined after a period of 5 days at concentration 4 mM; assay type: functional, Homo sapiens
[11] = tested on: K562; assay: Effect of compound on erythroid differentiation of K562 cells was determined after a period of 9 days at concentration 4 mM; assay type: functional, Homo sapiens
[12] = tested on: K562; assay: Evaluated for erythroid induction of benzidine-positive K562 cells at concentration 3 mM; assay type: functional, Homo sapiens
[13] = tested on: K562; assay: Effect of compound on erythroid differentiation of K562 cells was determined after a period of 3 days at concentration 4 mM; assay type: functional, Homo sapiens
[14] = tested on: K562; assay: Compound was evaluated for erythroid induction of benzidine-positive K562 cells at concentration 5 mM after 9 day induction period; assay type: functional, Homo sapiens
[15] = tested on: K562; assay: Compound was evaluated for erythroid induction of benzidine-positive K562 cells at concentration 4 mM; assay type: functional, Homo sapiens
[16] = tested on: K562; assay: Compound (2 mM) was evaluated for maximum level of percentage of benzidine-positive (hemoglobin-containing) K562 cells in the presence of ara-C (25 nM); assay type: functional, Homo sapiens
[17] = tested on: K562; assay: Compound (2 mM) was evaluated for maximum level of percentage of benzidine-positive (hemoglobin-containing) K562 cells in the presence of mithramycin (5 nM); assay type: functional, Homo sapiens
[18] = tested on: K562; assay: Compound (2 mM) was evaluated for maximum level of percentage of benzidine-positive (hemoglobin-containing) K562 cells in the presence of retinoic acid (5 uM); assay type: functional, Homo sapiens
[19] = tested on: K562; assay: Compound (2 mM) was evaluated for maximum level of percentage of benzidine-positive (hemoglobin-containing) K562 cells in the presence of retinoic acid (5 µM)
[20] = tested on: K562; assay: Compound was evaluated for erythroid induction of benzidine-positive K562 cells at concentration 5 mM; assay type: functional, Homo sapiens
[21] = tested on: K562; assay: Effect of compound on erythroid differentiation of K562 cells was determined after a period of 5 days at concentration 500 nM; assay type: functional, Homo sapiens
[22] = tested on: K562; assay: Effect of compound on erythroid differentiation of K562 cells was determined after a period of 3 days at concentration 500 nM; assay type: functional, Homo sapiens
[23] = tested on: K562; assay: Effect of compound on erythroid differentiation of K562 cells was determined after a period of 7 days at concentration 500 nM; assay type: functional, Homo sapiens
[24] = tested on: K562; assay: Effect of compound on erythroid differentiation of K562 cells was determined after a period of 9 days at concentration 500 nM; assay type: functional, Homo sapiens
[25] = tested on: K562; assay: Effect of compound on erythroid differentiation of K562 cells was determined after a period of 7 days at concentration 20 nM; assay type: functional, Homo sapiens
[26] = tested on: K562; assay: The compound was evaluated for inhibition of cell growth against human myeloid leukemia K562(S) cells; assay type: functional, cell-based
[27] = tested on: K562; assay: Effect of compound on erythroid differentiation of K562 cells was determined after a period of 9 days at concentration 20 nM; assay type: functional, Homo sapiens
[28] = tested on: K562; assay: Effect of compound on erythroid differentiation of K562 cells was determined after a period of 3 days at concentration 20 nM; assay type: functional, Homo sapiens
[29] = tested on: K562; assay: Effect of compound on erythroid differentiation of K562 cells was determined after a period of 5 days at concentration 20 nM; assay type: functional, Homo sapiens

IC50 [3]: 2800 µM
SMILES: CC1(C)OCC(C2OC3OC(C)(C)OC3C2O)O1 (stereo not drawn)
Erythroid induction [1]: 18%
Erythroid induction [2]: 26%

IC50 [4]: 800 µM
SMILES: CCCC(=O)OC1C(C(O)CO)OC2OC(C)(C)OC21 (stereo not drawn)
Erythroid induction [5]: 25.4%

IC50 [4]: 1200 µM
SMILES: CCCCCC(=O)OC1C(C(O)CO)OC2OC(C)(C)OC21 (stereo not drawn)
Erythroid induction [6]: 10.3%
Erythroid induction [5]: 21%

IC50 [4]: 2000 µM
SMILES: CCCCC(=O)OC1C(C(O)CO)OC2OC(C)(C)OC21 (stereo not drawn)
Erythroid induction [7]: 25%
Erythroid induction [8]: 28%
Erythroid induction [5]: 24%

IC50 [4]: 4800 µM
SMILES: CC(C)C(=O)O
Erythroid induction [9]: 12%
Erythroid induction [10]: 14%
Erythroid induction [11]: 8%
Erythroid induction [12]: 14%
Erythroid induction [13]: 12%

IC50 [4]: 2400 µM
SMILES: CCC(=O)OC1C(C(O)CO)OC2OC(C)(C)OC21 (stereo not drawn)
Erythroid induction [7]: 25%
Erythroid induction [8]: 19.6%
Erythroid induction [5]: 21%

IC50 [4]: 500 µM
SMILES: CC(CC(=O)OC1C(C(O)CO)OC2OC(C)(C)OC21)c1ccccc1 (stereo not drawn)
Erythroid induction [6]: 15%

IC50 [4]: 1200 µM
SMILES: CC(C)(C)CC(=O)OC1C(C(O)CO)OC2OC(C)(C)OC21 (stereo not drawn)
Erythroid induction [5]: 20%

IC50 [4]: 1000 µM
SMILES: CC(C)CC(=O)OC1C(C(O)CO)OC2OC(C)(C)OC21 (stereo not drawn)
Erythroid induction [5]: 12%

IC50 [4]: 500 µM
SMILES: CC1(C)OC2OC(C(O)CO)C(OC(=O)CC(c3ccccc3)c3ccccc3)C2O1 (stereo not drawn)
Erythroid induction [6]: 14%

IC50 [4]: 2500 µM
SMILES: CC1(C)OC2OC(C(O)CO)C(OC(=O)C3CCCC3)C2O1 (stereo not drawn)
Erythroid induction [7]: 16.8%
Erythroid induction [8]: 7%
Erythroid induction [14]: 8%

IC50 [4]: 1500 µM
SMILES: CC1(C)OC2OC(C(O)CO)C(OC(=O)C(C)(C)C)C2O1 (stereo not drawn)
Erythroid induction [15]: 50.2%
Erythroid induction [9]: 50.7%
Erythroid induction [10]: 25%
Erythroid induction [11]: 59%
Erythroid induction [12]: 51.7%
Erythroid induction [16]: 90%
Erythroid induction [17]: 34%
Erythroid induction [13]: 22%
Erythroid induction [18]: 67%

IC50 [4]: 2500 µM
SMILES: CC(C)C(=O)OC1C(C(O)CO)OC2OC(C)(C)OC21 (stereo not drawn)
Erythroid induction [19]: 55.8%
Erythroid induction [15]: 54.2%
Erythroid induction [9]: 56.8%
Erythroid induction [10]: 35%
Erythroid induction [20]: 59%
Erythroid induction [11]: 50%
Erythroid induction [12]: 43%
Erythroid induction [16]: 78%
Erythroid induction [13]: 20%

IC50 [4]: 3800 µM
SMILES: CC(=O)OC1C(C(O)CO)OC2OC(C)(C)OC21 (stereo not drawn)
Erythroid induction [1]: 27%

IC50 [4]: 2400 µM
SMILES: CCCC(=O)O [BUTYRIC ACID]
Erythroid induction [12]: 35%

IC50 [4]: 0.5 µM
SMILES: Nc1ccn([C@@H]2O[C@H](CO)[C@@H](O)[C@@H]2O)c(=O)n1 [CYTARABINE]
Erythroid induction [21]: 61.5%
Erythroid induction [12]: 95%
Erythroid induction [22]: 45%
Erythroid induction [23]: 84.5%
Erythroid induction [24]: 93.2%

IC50 [4]: 4500 µM
SMILES: CC(C)(C)C(=O)O [PIVALATE]
Erythroid induction [9]: 11%
Erythroid induction [10]: 9%
Erythroid induction [11]: 6%
Erythroid induction [12]: 12%
Erythroid induction [13]: 4%

IC50 [26]: 0.01 µM
SMILES: CO[C@H](C(=O)[C@@H](O)[C@@H](C)O)[C@@H]1Cc2cc3cc(O[C@H]4C[C@@H](O[C@@H]5C[C@@H](O)[C@H](O)[C@@H](C)O5)[C@H](O)[C@@H](C)O4)c(C)c(O)c3c(O)c2C(=O)[C@H]1O[C@H]1C[C@@H](O[C@@H]2C[C@@H](O)[C@@H](O[C@@H]3C[C@](C)(O)[C@H](O)[C@@H](C)O3)[C@@H](C)O2)[C@H](O)[C@@H](C)O1 [PLICAMYCIN]
Erythroid induction [25]: 75%
Erythroid induction [12]: 81%
Erythroid induction [27]: 80%
Erythroid induction [28]: 15%
Erythroid induction [29]: 55%

IC50 [4]: 4000 µM
SMILES: CCC(=O)O [PROPIONIC ACID]
Erythroid induction [7]: 10%
